Assay [1] addresses Human serotonin 5HT2B receptor (Homo sapiens, UniProt P41595). Briefly: Competitive radioligand binding to 5HT2B receptor membranes. On the procedure:
Human serotonin 5HT2B receptor membrane preparations were divided into aliquots. On the day of the assay, membranes were diluted at 1:200 in incubation buffer. […] To each well was added 150 μL membrane preparation, 50 μL test compound, non-specific compound, or buffer alone, as well as 50 μL radioligand. The plate was incubated at 35° C. for 90 minutes with gentle agitation. […] For each concentration of drug, non-specific binding was subtracted from total binding to give specific binding. […] Ki was subsequently calculated using the ChengPrusoff equation.

Assay [2] concerns the target vesicular monoamine transporter 2 (VMAT2) (Homo sapiens, UniProt Q05940). The conditions noted are these: cited from earlier work.
Assay [3] can be described thus: Reserpine-induced fibromyalgia model, vonFrey test. The conditions noted are these: 15 mg/kg IP, 30 min before vonFrey test, day 4. The class given is in vivo, rat. On the procedure: In this Example, male Sprague Dawley rats are tested in a behavioral model of FMA based on the protocol from Nakagura et al. (2009) Pain 146:26. This model uses three daily doses of reserpine (1 mg/kg, SC) or 0.5% acetic acid vehicle to reduce pain thresholds (i.e., increase pain perception) in the Von Frey Test (vFT, procedure outlined below).
Von Frey Test (vFT) procedure: Increasing pain thresholds in this test are consistent with a reduction in pain perception. Prior to the start of dosing, rats are tested for their baseline mechanical pain threshold. For von Frey measurements, animals are placed into wire bottom cubicles with opaque Plexiglas walls, allowing access to the underside of their paws. Animals are habituated to this environment for at least 30 minutes before the start of the von Frey filament application. Static allodynia is measured using Semmes-Weinstein von Frey filaments (Stoelting, Wood Dale, IL). Mechanical allodynia is tested by touching the plantar surface of the animals' left and right hind paws with von Frey filaments which deliver a calibrated amount of force. Each von Frey filament is presented perpendicularly to the plantar surface for approximately 6 seconds of constant application in either ascending or descending strength in a modified up-and-down method (Chaplan et al. (1994) J Neurosci. Meth. 53:55). Stimulation is presented at intervals of several seconds, allowing for apparent resolution of any behavioral responses to previous stimuli. A positive response is noted if the paw is sharply withdrawn. Flinching immediately upon removal of the hair is also considered a positive response. Ambulation is considered an ambiguous response, and, in such cases, the stimulus is repeated.
VonFrey measurements: Animals were placed into wire bottom cubicles with opaque Plexiglas walls, allowing access to the underside of their paws. […] Static allodynia was measured using Semmes-Weinstein von Frey filaments (Stoelting, Wood Dale, IL). […] The average hindpaw thresholds were determined 60-min post-injection. […]

For assay [4], the target named is SERT (Rattus norvegicus, UniProt P31652). Briefly: [3H]5-HT uptake inhibition in rat brain synaptosomes. The conditions noted are these: read-out: Reuptake inhibition: IC50; rat brain synaptosomes.
Assay [5] has as its target NET (Rattus norvegicus, UniProt Q63380). Put plainly: [3H]NE uptake inhibition in rat brain synaptosomes. The conditions noted are these: read-out: Reuptake inhibition: IC50; rat brain synaptosomes.

Sequence of Human serotonin 5HT2B receptor (P41595 whole entry): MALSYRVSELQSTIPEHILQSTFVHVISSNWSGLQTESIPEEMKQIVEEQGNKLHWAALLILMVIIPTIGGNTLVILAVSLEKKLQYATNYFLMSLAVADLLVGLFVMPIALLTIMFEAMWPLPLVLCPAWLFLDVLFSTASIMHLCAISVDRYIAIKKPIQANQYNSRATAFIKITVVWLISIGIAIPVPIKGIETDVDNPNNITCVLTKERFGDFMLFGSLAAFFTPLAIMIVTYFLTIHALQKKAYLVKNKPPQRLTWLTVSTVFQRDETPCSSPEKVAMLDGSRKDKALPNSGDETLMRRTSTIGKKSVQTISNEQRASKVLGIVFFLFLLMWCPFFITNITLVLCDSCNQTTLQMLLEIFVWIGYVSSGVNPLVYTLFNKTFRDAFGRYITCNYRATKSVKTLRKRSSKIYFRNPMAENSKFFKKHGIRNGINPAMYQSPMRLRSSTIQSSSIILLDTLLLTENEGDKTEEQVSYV
Sequence of SERT (P31652 whole entry): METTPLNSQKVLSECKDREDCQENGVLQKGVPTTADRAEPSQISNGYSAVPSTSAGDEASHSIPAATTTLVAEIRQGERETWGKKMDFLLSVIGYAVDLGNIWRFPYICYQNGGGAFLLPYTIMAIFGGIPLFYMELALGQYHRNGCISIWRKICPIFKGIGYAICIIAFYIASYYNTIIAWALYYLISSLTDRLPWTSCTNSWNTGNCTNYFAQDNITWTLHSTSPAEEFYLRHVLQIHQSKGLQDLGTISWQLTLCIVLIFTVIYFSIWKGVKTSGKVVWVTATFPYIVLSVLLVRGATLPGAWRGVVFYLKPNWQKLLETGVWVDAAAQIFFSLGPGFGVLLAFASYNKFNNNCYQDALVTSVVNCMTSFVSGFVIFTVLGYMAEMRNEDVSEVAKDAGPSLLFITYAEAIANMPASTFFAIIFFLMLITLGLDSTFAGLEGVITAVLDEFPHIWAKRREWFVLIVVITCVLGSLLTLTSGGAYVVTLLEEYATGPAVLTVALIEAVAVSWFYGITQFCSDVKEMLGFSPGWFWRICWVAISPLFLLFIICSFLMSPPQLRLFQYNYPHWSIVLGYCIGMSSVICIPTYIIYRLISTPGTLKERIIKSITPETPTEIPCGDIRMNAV
Sequence of NET (Q63380 1-617): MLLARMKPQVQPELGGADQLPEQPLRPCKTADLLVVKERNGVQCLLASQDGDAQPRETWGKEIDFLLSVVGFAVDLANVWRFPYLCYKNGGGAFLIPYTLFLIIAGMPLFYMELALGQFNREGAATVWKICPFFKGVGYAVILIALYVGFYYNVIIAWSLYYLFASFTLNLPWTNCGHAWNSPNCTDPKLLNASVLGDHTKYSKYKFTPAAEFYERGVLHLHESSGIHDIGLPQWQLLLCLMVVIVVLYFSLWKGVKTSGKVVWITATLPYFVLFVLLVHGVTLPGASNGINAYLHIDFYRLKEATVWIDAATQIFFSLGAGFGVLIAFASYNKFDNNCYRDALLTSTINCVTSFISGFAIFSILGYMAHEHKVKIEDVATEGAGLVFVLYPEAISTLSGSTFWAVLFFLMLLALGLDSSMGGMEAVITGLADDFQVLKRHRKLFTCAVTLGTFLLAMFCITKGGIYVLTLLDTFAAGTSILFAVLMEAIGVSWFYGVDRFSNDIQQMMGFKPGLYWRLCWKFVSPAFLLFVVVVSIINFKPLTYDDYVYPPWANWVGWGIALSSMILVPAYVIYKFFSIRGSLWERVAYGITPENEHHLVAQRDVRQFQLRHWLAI
Sequence of vesicular monoamine transporter 2 (VMAT2) (Q05940 whole entry, species assumed): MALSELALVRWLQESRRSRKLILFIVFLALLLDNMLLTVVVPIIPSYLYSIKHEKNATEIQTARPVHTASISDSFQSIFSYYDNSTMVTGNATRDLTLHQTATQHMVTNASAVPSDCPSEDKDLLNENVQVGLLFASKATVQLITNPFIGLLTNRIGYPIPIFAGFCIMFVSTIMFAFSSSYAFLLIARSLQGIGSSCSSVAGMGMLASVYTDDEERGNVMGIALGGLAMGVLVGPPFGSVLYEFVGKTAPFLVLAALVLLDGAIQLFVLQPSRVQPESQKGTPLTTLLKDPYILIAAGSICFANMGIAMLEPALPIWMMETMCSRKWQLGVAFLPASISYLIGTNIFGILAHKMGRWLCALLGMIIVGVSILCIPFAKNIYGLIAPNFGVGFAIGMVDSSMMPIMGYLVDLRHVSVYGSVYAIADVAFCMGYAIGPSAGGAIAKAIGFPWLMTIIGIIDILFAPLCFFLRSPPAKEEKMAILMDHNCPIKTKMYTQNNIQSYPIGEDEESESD

The term IC50 denotes the midpoint of a concentration-inhibition curve. The Ki is a measure of affinity in units of concentration, obtained from inhibition or displacement. The low end stands for tighter binding, the high end for weaker binding. For the compound `CNC(C)C(=O)c1ccc2c(c1)OCO2` (stereo not drawn) [Methylone, 3,4-methylenedioxy-N-methylcathinone], the half-inhibitory concentration (IC50) worked out at 4.28 µM in assay [1], 0.43 µM in assay [4] and 0.13 µM in assay [5]. In assay [1], this compound returned a Ki of 3.75 µM. In assay [2], the “Affinity for VMAT2, times lower than that of MDMA” value is given as “about 13 ×”. Further, the Paw withdrawal thresholds entry in assay [3] was “significantly increased paw withdrawal thresholds”.
